This is an account of results in article PMC10135378, “Synthesis of Novel N-Heterocyclic Carbene-Ruthenium (II) Complexes, “Precious” Tools with Antibacterial, Anticancer and Antioxidant Properties” (Antibiotics, 2023).

Some results are limits rather than exact numbers.

Assay [1] can be described thus: DPPH radical scavenging assay. The following applies: 30 min, room temperature, 517 nm. How it is done: Generally, the DPPH radical is able to accept hydrogen radicals or an electron, turning into a stable molecule. The interaction with Ru-NHC complexes induces the reduction of DPPH radical intensity measured at 517 nm, due to the conversion of the purple DPPH radical into its corresponding yellow hydrazine form.
The radical scavenging properties of Ru-NHC complexes on the 1,1-diphenyl-2-picryl-hydrazil (DPPH) radical were evaluated as described by Fazio et al., with minor corrections. Then, 20 μL of each Ru complex, properly dissolved in DMSO, were mixed with methanol DPPH 0.1 mM (180 μL) in a 48-well plate obtaining […] different concentrations (10, 50, 100, 200 and 300 µg/mL). Next, 20 μL of DMSO in 180 μL of DPPH methanol solution was diluted as the control. The mixture was vigorously shaken and incubated (room temperature, 30 min, in the dark). The scavenging activity was measured at 517 nm, using a microplate reader. DPPH radical scavenging was expressed as inhibition percentages (%IDPPH) for the Ru complexes compared to the initial concentration of DPPH (control) according to the formula: %IDPPH=A0−A/A0×100 where A0 is the absorbance at 517 nm of the control reaction and A is the absorbance at 517 nm in the presence of samples.
The obtained IDPPH percentages allowed the IC50 values determination, using GraphPad Prism 9 software (GraphPad Inc., San Diego, CA, USA). Trolox was employed as a positive control.

Assay [2] has as its system Enterococcus faecalis (ATCC 19433). Nature of the assay: MIC/MBC broth dilution, E. faecalis. In kind it is cell-based. The following applies: broth dilution, 37 °C, 18 h. How it is done: (§1) One Gram-negative (Escherichia coli (ATCC® 25922TM)) and two Gram-positive bacterial strains (Enterococcus faecalis (ATCC® 19433TM) and Staphylococcus aureus (ATCC® 23235TM)] were used for MIC and MBC values determination, according to CLSI guidelines. MIC represents the lowest concentration of compound inhibiting the visible microbial growth and expressed as μg/mL; MBC is the lowest concentration able to kill the bacteria. Both determinations were performed by the broth dilution method. Bacteria were grown overnight in LB medium (2%), then diluted to a density of […] colony forming units (CFUs) per mL, plated in sterile 96-well microplates, obtaining about 10^5 cells/ well. Increasing concentrations of the Ru-NHC complexes (1, 10, 25, 50, 70, 100 µg/mL) were used. After incubation at 37 °C for 18 h (overnight), bacterial growth was checked at a wavelength of 600 nm using a Multiskan spectrophotometer (model Multiskan Ex Microplate; Thermo Scientific, Nyon, Switzerland) and MIC or MBC values were determined, comparing cell density with a positive control (bacterial cells grown in LB medium were added with only the vehicle, DMSO). Each experiment was carried out five times, in triplicate. Ampicillin (Sigma Aldrich A9393) was used as the control for strain sensitivity.

Another assay deals with MDA-MB-231 cells. Description: MTT assay, anticancer activity on MDA-MB-231 cells. In kind it is cell-based, human. The following applies: for IC50: MTT, 72 h exposure, 0.1-100 µM; for fold more active against MDA-MB-231 than MCF-10A cells: ratio of IC50 values MCF-10A / MDA-MB-231. How it is done: (§2) The anticancer activity of all the synthesized Ru-NHC complexes (RANHC I-VI) was studied in two human breast cancer cell lines, namely the estrogen receptor positive (ER+) MCF-7 cells and the triple negative MDA-MB-231 cells (ER-, PR-, and HER-2/Neu not overexpressed), and neuroblastoma cells, i.e., SH-SY5Y. First, the cells were exposed for 72 h at different concentrations of the studied complexes (from 0.1 to 100 µM) and then their viability was checked by MTT assay.
(§3) The adopted cells (breast cancer MCF-7 and MDA-MB-231 and human mammary epithelial MCF-10A cells) were purchased from American Type Culture Collection (ATCC, Manassas, VA, USA) and cultured as indicated. The mouse embryonic fibroblast BALB/3T3 and neuroblastoma SH-SY5Y were also obtained from American Type Culture Collection (ATCC, Manassas, VA, USA) and cultured in DMEM high glucose supplemented with 100 U mL^−1 penicillin/streptomycin and 10% bovine calf serum (BCS) or 10% fetal bovine serum (FBS), respectively.
(§4) MTT assay (Sigma Aldrich (St. Louis, MO, USA)) was used for the in vitro anticancer activity evaluation, as previously reported. The Ru-NHC complexes were employed at different concentrations (0.1–1–10–25–50–100 μM) for 72 h. The IC50 values were calculated from the percent (%) of control using GraphPad Prism 9 (GraphPad Software, La Jolla, CA, USA).
In general terms: Tetrazolium assays rely on reduction of a dye to a coloured formazan, in cell work by metabolically active cells.

The test system of assay [3] is Escherichia coli (ATCC 25922). Description: MIC/MBC broth dilution, E. coli. In kind it is cell-based. The following applies: broth dilution, 37 °C, 18 h. How it is done: as §1
For the next assay, the system named is MCF-7 cells. Nature of the assay: MTT assay, anticancer activity on MCF-7 cells. The following applies: 72 h exposure, 0.1-100 µM. Type of assay: cell-based, human. How it is done: as §2, §3, §4
A further assay has as its system SH-SY5Y cells. Description: MTT assay, anticancer activity on SH-SY5Y neuroblastoma cells. In kind it is cell-based. The following applies: 72 h exposure, 0.1-100 µM. The procedure:
as §2, §3, §4

Usually IC50 stands for the point on the concentration scale where inhibition reaches its midpoint. On to `CN1C=CN2CC(c3ccccc3)[O+](C)[Ru]([Cl])=[C]12.Cc1ccc(C(C)C)cc1.F[P-](F)(F)(F)(F)F` (centres unmarked) [RANHC-III], for which the half-maximal inhibitory concentration (IC50) was 44.2 ± 1.2 µM in assay [1], above 100 µM with MDA-MB-231 cells, above 100 µM in the assay with MCF-7 cells and above 100 µM in the assay with SH-SY5Y cells. Also, in assay [2], the “M.I.C. E. faecalis” value came out at 50 µg/mL. Moreover, in assay [3], the “M.I.C. E. coli” value was found to be 25 µg/mL.

As for `COC(Cn1ccn(C)[c]1=[Ru]([I])[I])c1ccccc1.Cc1ccc(C(C)C)cc1` (centres unmarked) [RANHC-II], the 50% inhibitory concentration (IC50) in assay [1] is 214.8 ± 1.1 µM; in the assay on MDA-MB-231 cells, above 100 µM; in the assay on MCF-7 cells, above 100 µM; in the assay on SH-SY5Y cells, above 100 µM. For the same molecule, in assay [2], the “M.I.C. E. faecalis” value turned out to be 50 µg/mL. The “M.I.C. E. coli” value in assay [3] came out at 50 µg/mL.

Turning to `COC(Cn1ccn(C)[c]1=[Ru]1[O]C(=O)C(=O)[O]1)c1ccccc1.Cc1ccc(C(C)C)cc1` (centres unmarked) [RANHC-IV], the IC50 was 512.3 ± 0.8 µM in assay [1], above 100 µM with MDA-MB-231 cells, above 100 µM in the assay with MCF-7 cells and 88.9 ± 0.9 µM with SH-SY5Y cells. Moreover, the “M.I.C. E. faecalis” value in assay [2] is 50 µg/mL. In addition, the “M.I.C. E. coli” value in assay [3] was 50 µg/mL.

In the case of `COC(Cn1ccn(C)[c]1=[Ru]([Cl])[Cl])c1ccccc1.Cc1ccc(C(C)C)cc1` (centres unmarked) [RANHC-I], the IC50 in assay [1] is 369.6 ± 1.1 µM; in the assay with MDA-MB-231 cells, above 100 µM; in the assay with MCF-7 cells it was above 100 µM; in the assay on SH-SY5Y cells it was 90 ± 1.2 µM. In assay [2], the “M.I.C. E. faecalis” value was found to be 50 µg/mL. Besides, in assay [3], the “M.I.C. E. coli” value amounted to 50 µg/mL.

Turning to `COC(Cn1[c](=[Ru]([Cl])[Cl])n(C)c2ccccc21)c1ccccc1.Cc1ccc(C(C)C)cc1` (centres unmarked) [RANHC-VI], the IC50 in assay [1] was determined as 161.6 ± 1 µM; in the assay on MDA-MB-231 cells, 40.6 ± 1.1 µM; in the assay on MCF-7 cells it was 54.8 ± 1.1 µM; in the assay on SH-SY5Y cells it was 66.9 ± 0.8 µM. Besides, in assay [2], the “M.I.C. E. faecalis” value is reported as 50 µg/mL. Further, the “fold more active against MDA-MB-231 than MCF-10A cells” value in the assay with MDA-MB-231 cells is given as 2.2 fold. Moreover, the “M.I.C. E. coli” value in assay [3] worked out at 25 µg/mL.

As to `COC(Cn1c(Cl)c(Cl)n(C)[c]1=[Ru]([Cl])[Cl])c1ccccc1.Cc1ccc(C(C)C)cc1` (centres unmarked) [RANHC-V], the IC50 came out at 246.2 ± 1.2 µM in assay [1], 24.1 ± 0.7 µM in the assay with MDA-MB-231 cells, 26.1 ± 0.9 µM with MCF-7 cells and 48.4 ± 0.8 µM in the assay with SH-SY5Y cells. In addition, the “M.I.C. E. faecalis” value in assay [2] is reported as 70 µg/mL. Also, the “fold more active against MDA-MB-231 than MCF-10A cells” value in the assay with MDA-MB-231 cells is “about 3.3 fold”. Also, the “M.I.C. E. coli” value in assay [3] was determined as 50 µg/mL.
